Data: the supplement of paper PMC5303821, “Major sulfonate transporter Soa1 in Saccharomyces cerevisiae and considerable substrate diversity in its fungal family” (Nature Communications, 2017)

Columns and labels:
[1] = system: Ogataea parapolymorpha_XP_013936897; test: maximal growth rate with compound as sole sulfur source (OD600 per h); higher = better growth / uptake of the sulfur source; conditions: sulfur source concentration 40000 µM; S. cerevisiae S288C/BY sul1Δ sul2Δ soa1Δ with transporter ortholog inserted at SOA1 locus; sulfur-free B medium, 4% glucose, pH 6.5, sole sulfur source
Method: (§1)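 S. cerevisiae sul1Δ sul2Δ soa1Δ strains expressing 20 fungal SOA1 orthologs (or no transporter, 'soa1 del') were grown in liquid sulfur-free B medium, 4% glucose, pH 6.5 (7 mM K2HPO4). The strains were sulfur-starved for 3 days beforehand. Each sulfur compound was the sole sulfur source at 200 µM (sulfate also at 40 mM). OD600 curves of duplicate cultures were averaged and fitted (logistic / Richards, GroFit) to give maximal growth rate, maximal density and lag phase; temperature not stated.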

[2] = system: Saccharomyces eubayanus_SOA2; test: as above; conditions: S. cerevisiae S288C/BY sul1Δ sul2Δ soa1Δ with transporter ortholog inserted at SOA1 locus, sulfur-free B medium, 4% glucose, pH 6.5, sole sulfur source
Method: as §1

[3] = system: Aspergillus nidulans (IAM 2006)_astA; test: as above; conditions: S. cerevisiae S288C/BY sul1Δ sul2Δ soa1Δ with transporter ortholog inserted at SOA1 locus, sulfur-free B medium, 4% glucose, pH 6.5, sole sulfur source
Method: as §1

[4] = system: Saccharomyces uvarum_SOA1; test: as above; conditions: S. cerevisiae S288C/BY sul1Δ sul2Δ soa1Δ with transporter ortholog inserted at SOA1 locus, sulfur-free B medium, 4% glucose, pH 6.5, sole sulfur source
Method: as §1

[5] = system: Aspergillus nidulans_XP_660670; test: as above; conditions: S. cerevisiae S288C/BY sul1Δ sul2Δ soa1Δ with transporter ortholog inserted at SOA1 locus, sulfur-free B medium, 4% glucose, pH 6.5, sole sulfur source
Method: as §1

[6] = system: Metarhizium robertsii_XP_007822519; test: as above; conditions: S. cerevisiae S288C/BY sul1Δ sul2Δ soa1Δ with transporter ortholog inserted at SOA1 locus, sulfur-free B medium, 4% glucose, pH 6.5, sole sulfur source
Method: as §1

[7] = system: Ogataea parapolymorpha_XP_013935289; test: lag phase before growth; higher = slower start of growth; conditions: S. cerevisiae S288C/BY sul1Δ sul2Δ soa1Δ with transporter ortholog inserted at SOA1 locus, sulfur-free B medium, 4% glucose, pH 6.5, sole sulfur source
Method: as §1

[8] = system: Saccharomyces eubayanus_SOA1; test: as above; conditions: sulfur source concentration 40000 µM; S. cerevisiae S288C/BY sul1Δ sul2Δ soa1Δ with transporter ortholog inserted at SOA1 locus; sulfur-free B medium, 4% glucose, pH 6.5, sole sulfur source
Method: as §1

[9] = system: Saccharomyces cerevisiae_SOA1; test: as above; conditions: sulfur source concentration 40000 µM; S. cerevisiae S288C/BY sul1Δ sul2Δ soa1Δ with transporter ortholog inserted at SOA1 locus; sulfur-free B medium, 4% glucose, pH 6.5, sole sulfur source
Method: as §1

[10] = system: Saccharomyces uvarum_SOA1; test: as above; conditions: sulfur source concentration 40000 µM; S. cerevisiae S288C/BY sul1Δ sul2Δ soa1Δ with transporter ortholog inserted at SOA1 locus; sulfur-free B medium, 4% glucose, pH 6.5, sole sulfur source
Method: as §1

[11] = system: Ogataea parapolymorpha_XP_013935289; test: maximal culture density with compound as sole sulfur source (OD600); higher = better growth; conditions: S. cerevisiae S288C/BY sul1Δ sul2Δ soa1Δ with transporter ortholog inserted at SOA1 locus, sulfur-free B medium, 4% glucose, pH 6.5, sole sulfur source
Method: as §1

[12] = system: Fusarium oxysporum_ENH65823; test: as above; conditions: sulfur source concentration 200 µM; S. cerevisiae S288C/BY sul1Δ sul2Δ soa1Δ with transporter ortholog inserted at SOA1 locus; sulfur-free B medium, 4% glucose, pH 6.5, sole sulfur source
Method: as §1

[13] = system: Aspergillus nidulans_XP_661711; test: as above; conditions: S. cerevisiae S288C/BY sul1Δ sul2Δ soa1Δ with transporter ortholog inserted at SOA1 locus, sulfur-free B medium, 4% glucose, pH 6.5, sole sulfur source
Method: as §1

[14] = system: Aspergillus nidulans_XP_681611; test: as above; conditions: S. cerevisiae S288C/BY sul1Δ sul2Δ soa1Δ with transporter ortholog inserted at SOA1 locus, sulfur-free B medium, 4% glucose, pH 6.5, sole sulfur source
Method: as §1

[15] = system: Saccharomyces eubayanus_SOA1; test: as above; conditions: S. cerevisiae S288C/BY sul1Δ sul2Δ soa1Δ with transporter ortholog inserted at SOA1 locus, sulfur-free B medium, 4% glucose, pH 6.5, sole sulfur source
Method: as §1

[16] = system: Saccharomyces uvarum_SOA1; test: as above; conditions: S. cerevisiae S288C/BY sul1Δ sul2Δ soa1Δ with transporter ortholog inserted at SOA1 locus, sulfur-free B medium, 4% glucose, pH 6.5, sole sulfur source
Method: as §1

[17] = system: Aspergillus nidulans_XP_660670; test: as above; conditions: S. cerevisiae S288C/BY sul1Δ sul2Δ soa1Δ with transporter ortholog inserted at SOA1 locus, sulfur-free B medium, 4% glucose, pH 6.5, sole sulfur source
Method: as §1

[18] = system: Metarhizium robertsii_XP_007822519; test: as above; conditions: S. cerevisiae S288C/BY sul1Δ sul2Δ soa1Δ with transporter ortholog inserted at SOA1 locus, sulfur-free B medium, 4% glucose, pH 6.5, sole sulfur source
Method: as §1

[19] = sulfur source concentration 200 µM
[20] = sulfur source concentration 40000 µM

SMILES: O=S(=O)(O)O [sulfate]
- maximal growth rate [1]: 0.00462
- maximal growth rate [2, 19]: 0.00313
- maximal growth rate [2, 20]: 0.00349
- maximal growth rate [3, 19]: 0.0953
- maximal growth rate [3, 20]: 0.102
- maximal growth rate [4, 19]: 0.0032
- maximal growth rate [4, 20]: 0.0989
- maximal growth rate [5, 19]: 0.00401
- maximal growth rate [5, 20]: 0.00492
- maximal growth rate [6, 19]: 0.00347
- maximal growth rate [6, 20]: 0.00386
- lag phase before growth [7, 19]: 25.8 h
- lag phase before growth [7, 20]: 7.95 h
- lag phase before growth [8]: 16.8 h
- lag phase before growth [9]: 13.8 h
- lag phase before growth [10]: 10.7 h
- maximal culture density [11, 19]: 1.58
- maximal culture density [11, 20]: 1.65
- maximal culture density [12]: 0.233
- maximal culture density [13, 19]: 0.224
- maximal culture density [13, 20]: 0.382
- maximal culture density [14, 19]: 0.294
- maximal culture density [14, 20]: 0.301
- maximal culture density [15, 19]: 0.251
- maximal culture density [15, 20]: 1.62
- maximal culture density [16, 19]: 0.265
- maximal culture density [16, 20]: 1.65
- maximal culture density [17, 19]: 0.223
- maximal culture density [17, 20]: 0.277
- maximal culture density [18, 19]: 0.186
- maximal culture density [18, 20]: 0.213
